Laboratory results from patent US8952024B2, “Herbicidal pyrimidone derivatives” (E I du Pont de Nemours and Company, priority 2009, dated 2015).

Key:
Type in all cases: in vivo
[1] = system: cocklebur (Xanthium strumarium); assay: Test B pre-/postemergence plant response; conditions: for Plant response rating, Cocklebur: Postemergence; for Cocklebur plant response rating (0 to 100 scale): 62 g ai/ha, postemergence, 0 is no effect, 100 is complete control
In short: (§1)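 Greenhouse herbicide screen. Pre- and postemergence (1- to 4-leaf) spray of compound in solvent/surfactant mixture; loam–sand soil for pre, peat/vermiculite medium for post. Visual control rating 0–100 at 13 to 15 days after treatment.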

[2] = system: goosegrass (Eleusine indica); assay: Test B pre-/postemergence plant response; conditions: for Plant response rating, Goosegrass: Postemergence; for Goosegrass plant response rating (0 to 100 scale): 62 g ai/ha, postemergence, 0 is no effect, 100 is complete control
In short: as §1

[3] = system: johnsongrass (Sorghum halepense); assay: Test B pre-/postemergence plant response; conditions: for Plant response rating, Johnsongrass: Postemergence; for Johnsongrass plant response rating (0 to 100 scale): 62 g ai/ha, postemergence, 0 is no effect, 100 is complete control
In short: as §1

[4] = system: kochia (Kochia scoparia); assay: Test B pre-/postemergence plant response; conditions: for Plant response rating, Kochia: Postemergence; for Kochia plant response rating (0 to 100 scale): 62 g ai/ha, postemergence, 0 is no effect, 100 is complete control
In short: as §1

[5] = system: pigweed (Amaranthus retroflexus); assay: Test B pre-/postemergence plant response; conditions: for Plant response rating, Pigweed: Postemergence; for Pigweed plant response rating (0 to 100 scale): 62 g ai/ha, postemergence, 0 is no effect, 100 is complete control
In short: as §1

[6] = system: ragweed (common ragweed, Ambrosia elatior); assay: Test B pre-/postemergence plant response; conditions: for Plant response rating, Ragweed: Postemergence; for Ragweed plant response rating (0 to 100 scale): 62 g ai/ha, postemergence, 0 is no effect, 100 is complete control
In short: as §1

[7] = system: soybean (Glycine max); assay: Test B pre-/postemergence plant response; conditions: for Plant response rating, Soybean: Postemergence; for Soybean plant response rating (0 to 100 scale): 62 g ai/ha, postemergence, 0 is no effect, 100 is complete control
In short: as §1

[8] = system: velvetleaf (Abutilon theophrasti); assay: Test B pre-/postemergence plant response; conditions: for Plant response rating, Velvetleaf: Postemergence; for Velvetleaf plant response rating (0 to 100 scale): 62 g ai/ha, postemergence, 0 is no effect, 100 is complete control
In short: as §1

[9] = system: wheat (Triticum aestivum); assay: Test B pre-/postemergence plant response; conditions: for Plant response rating, Wheat: Postemergence; for Wheat plant response rating (0 to 100 scale): 62 g ai/ha, postemergence, 0 is no effect, 100 is complete control
In short: as §1

[10] = system: wild oat (Avena fatua); assay: Test B pre-/postemergence plant response; conditions: for Plant response rating, Oat, Wild: Postemergence; for Oat, Wild plant response rating (0 to 100 scale): 62 g ai/ha, postemergence, 0 is no effect, 100 is complete control
In short: as §1

[11] = system: canarygrass (Phalaris minor); assay: Test B postemergence plant response; conditions: for Plant response rating, Canarygrass: Postemergence; for Canarygrass plant response rating (0 to 100 scale): 62 g ai/ha, postemergence, 0 is no effect, 100 is complete control
In short: (§2)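 Visual ratings from 0 (no effect) to 100 (complete control), made against controls 13–15 days after treatment, kept in a greenhouse. Compounds were applied postemergence to potted plants at the 1- to 4-leaf stage (2–18 cm).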

[12] = system: chickweed (Stellaria media); assay: Test B postemergence plant response; conditions: for Plant response rating, Chickweed: Postemergence; for Chickweed plant response rating (0 to 100 scale): 62 g ai/ha, postemergence, 0 is no effect, 100 is complete control
In short: as §2

[13] = system: windgrass (Apera spica-venti); assay: Test B postemergence plant response; conditions: for Plant response rating, Windgrass: Postemergence; for Windgrass plant response rating (0 to 100 scale): 62 g ai/ha, postemergence, 0 is no effect, 100 is complete control
In short: as §2

[14] = 31 g ai/ha, 0 to 100 scale (0 no effect, 100 complete control)
[15] = 125 g ai/ha, scale 0 to 100 (0 no effect, 100 complete control)
[16] = 250 g ai/ha, scale 0 to 100 (0 no effect, 100 complete control), 13 to 15 days

O=C1CCCC(O)=C1C(=O)c1cnc(-c2ccccc2)n(C2CCCC2)c1=O [Compound 131]
Plant response rating, Cocklebur ([1]; 16 g ai/ha, 0 to 100 scale): 80 | Cocklebur plant response rating (0 to 100 scale) ([1]; 13 to 15 days): 98 | Plant response rating, Cocklebur [1, 14]: 95 | Plant response rating, Cocklebur [1, 15]: 100 | Plant response rating, Goosegrass ([2]; 16 g ai/ha, 0 to 100 scale): 65 | Goosegrass plant response rating (0 to 100 scale) ([2]; 13 to 15 days): 65 | Plant response rating, Goosegrass [2, 14]: 65 | Plant response rating, Goosegrass [2, 15]: 75 | Plant response rating, Johnsongrass ([3]; 16 g ai/ha, 0 to 100 scale): 0 | Johnsongrass plant response rating (0 to 100 scale) ([3]; 13 to 15 days): 25 | Plant response rating, Johnsongrass [3, 14]: 5 | Plant response rating, Johnsongrass [3, 15]: 50 | Plant response rating, Kochia ([4]; 16 g ai/ha, 0 to 100 scale): 20 | Kochia plant response rating (0 to 100 scale) ([4]; 13 to 15 days): 60 | Plant response rating, Kochia [4, 14]: 35 | Plant response rating, Kochia [4, 15]: 75 | Plant response rating, Pigweed ([5]; 16 g ai/ha, 0 to 100 scale): 60 | Pigweed plant response rating (0 to 100 scale) ([5]; 13 to 15 days): 95 | Plant response rating, Pigweed [5, 14]: 90 | Plant response rating, Pigweed [5, 15]: 100 | Plant response rating, Ragweed ([6]; 16 g ai/ha, 0 to 100 scale): 65 | Ragweed plant response rating (0 to 100 scale) ([6]; 13 to 15 days): 85 | Plant response rating, Ragweed [6, 14]: 80 | Plant response rating, Ragweed [6, 15]: 95 | Plant response rating, Soybean ([7]; 16 g ai/ha, 0 to 100 scale): 75 | Soybean plant response rating (0 to 100 scale) ([7]; 13 to 15 days): 95 | Plant response rating, Soybean [7, 14]: 75 | Plant response rating, Soybean [7, 15]: 98 | Plant response rating, Velvetleaf ([8]; 16 g ai/ha, 0 to 100 scale): 70 | Velvetleaf plant response rating (0 to 100 scale) ([8]; 13 to 15 days): 85 | Plant response rating, Velvetleaf [8, 14]: 80 | Plant response rating, Velvetleaf [8, 15]: 98 | Plant response rating, Wheat ([9]; 16 g ai/ha, 0 to 100 scale): 0 | Wheat plant response rating (0 to 100 scale) ([9]; 13 to 15 days): 0 | Plant response rating, Wheat [9, 14]: 0 | Plant response rating, Wheat [9, 15]: 0 | Plant response rating, Oat, Wild ([10]; 16 g ai/ha, 0 to 100 scale): 0 | Oat, Wild plant response rating (0 to 100 scale) ([10]; 13 to 15 days): 0 | Plant response rating, Oat, Wild [10, 14]: 0 | Plant response rating, Oat, Wild [10, 15]: 0 | Plant response rating, Canarygrass ([11]; 16 g ai/ha, 0 to 100 scale): 0 | Canarygrass plant response rating (0 to 100 scale) ([11]; 13 to 15 days): 0 | Plant response rating, Canarygrass [11, 14]: 0 | Plant response rating, Canarygrass [11, 15]: 0 | Plant response rating, Chickweed ([12]; 16 g ai/ha, 0 to 100 scale): 45 | Chickweed plant response rating (0 to 100 scale) ([12]; 13 to 15 days): 80 | Plant response rating, Chickweed [12, 14]: 65 | Plant response rating, Chickweed [12, 15]: 90 | Plant response rating, Windgrass ([13]; 16 g ai/ha, 0 to 100 scale): 0 | Windgrass plant response rating (0 to 100 scale) ([13]; 13 to 15 days): 0 | Plant response rating, Windgrass [13, 14]: 0 | Plant response rating, Windgrass [13, 15]: 5

COCCCn1c(-c2cccc(Br)c2)ncc(C(=O)C2=C(O)CCCC2=O)c1=O [Compound 140]
Cocklebur plant response rating (0 to 100 scale) ([1]; 13 to 15 days): 15 | Plant response rating, Cocklebur [1, 14]: 0 | Plant response rating, Cocklebur [1, 15]: 65 | Plant response rating, Cocklebur [1, 16]: 95 | Goosegrass plant response rating (0 to 100 scale) ([2]; 13 to 15 days): 65 | Plant response rating, Goosegrass [2, 14]: 45 | Plant response rating, Goosegrass [2, 15]: 70 | Plant response rating, Goosegrass [2, 16]: 85 | Johnsongrass plant response rating (0 to 100 scale) ([3]; 13 to 15 days): 15 | Plant response rating, Johnsongrass [3, 14]: 10 | Plant response rating, Johnsongrass [3, 15]: 35 | Plant response rating, Johnsongrass [3, 16]: 45 | Kochia plant response rating (0 to 100 scale) ([4]; 13 to 15 days): 10 | Plant response rating, Kochia [4, 14]: 0 | Plant response rating, Kochia [4, 15]: 10 | Plant response rating, Kochia [4, 16]: 35 | Pigweed plant response rating (0 to 100 scale) ([5]; 13 to 15 days): 70 | Plant response rating, Pigweed [5, 14]: 55 | Plant response rating, Pigweed [5, 15]: 75 | Plant response rating, Pigweed [5, 16]: 98 | Ragweed plant response rating (0 to 100 scale) ([6]; 13 to 15 days): 45 | Plant response rating, Ragweed [6, 14]: 25 | Plant response rating, Ragweed [6, 15]: 65 | Plant response rating, Ragweed [6, 16]: 75 | Soybean plant response rating (0 to 100 scale) ([7]; 13 to 15 days): 60 | Plant response rating, Soybean [7, 14]: 10 | Plant response rating, Soybean [7, 15]: 75 | Plant response rating, Soybean [7, 16]: 80 | Velvetleaf plant response rating (0 to 100 scale) ([8]; 13 to 15 days): 65 | Plant response rating, Velvetleaf [8, 14]: 50 | Plant response rating, Velvetleaf [8, 15]: 80 | Plant response rating, Velvetleaf [8, 16]: 85 | Wheat plant response rating (0 to 100 scale) ([9]; 13 to 15 days): 5 | Plant response rating, Wheat [9, 14]: 5 | Plant response rating, Wheat [9, 15]: 10 | Plant response rating, Wheat [9, 16]: 15 | Oat, Wild plant response rating (0 to 100 scale) ([10]; 13 to 15 days): 5 | Plant response rating, Oat, Wild [10, 14]: 0 | Plant response rating, Oat, Wild [10, 15]: 10 | Plant response rating, Oat, Wild [10, 16]: 40 | Canarygrass plant response rating (0 to 100 scale) ([11]; 13 to 15 days): 0 | Plant response rating, Canarygrass [11, 14]: 0 | Plant response rating, Canarygrass [11, 15]: 5 | Plant response rating, Canarygrass [11, 16]: 5 | Chickweed plant response rating (0 to 100 scale) ([12]; 13 to 15 days): 10 | Plant response rating, Chickweed [12, 14]: 0 | Plant response rating, Chickweed [12, 15]: 45 | Plant response rating, Chickweed [12, 16]: 75 | Windgrass plant response rating (0 to 100 scale) ([13]; 13 to 15 days): 5 | Plant response rating, Windgrass [13, 14]: 0 | Plant response rating, Windgrass [13, 15]: 5 | Plant response rating, Windgrass [13, 16]: 30
